The source made the active and inactive calls. The rule behind the calls is not given here.
How the values were obtained:
[1] = target: T1, Snake venom metalloproteinase BaP1 (Bothrops asper) (UniProt P83512); assay: Binding affinity to Bothrops asper venom metalloprotease BaP1 assessed as red shift by fluorescence spectroscopic method
T1 sequence (whole entry): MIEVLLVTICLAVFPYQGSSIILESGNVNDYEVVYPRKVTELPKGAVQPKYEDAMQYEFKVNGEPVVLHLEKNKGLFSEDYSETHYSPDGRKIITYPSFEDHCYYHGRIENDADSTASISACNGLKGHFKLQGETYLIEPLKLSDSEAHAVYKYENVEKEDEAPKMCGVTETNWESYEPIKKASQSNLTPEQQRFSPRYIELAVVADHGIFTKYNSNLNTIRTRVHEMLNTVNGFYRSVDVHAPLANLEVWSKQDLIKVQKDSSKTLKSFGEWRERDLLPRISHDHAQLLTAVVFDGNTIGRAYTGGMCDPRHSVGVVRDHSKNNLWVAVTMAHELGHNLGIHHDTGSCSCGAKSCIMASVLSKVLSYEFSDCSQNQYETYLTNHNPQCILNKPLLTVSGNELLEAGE

[2] = target: T2, Snake venom metalloproteinase BaP1 (Bothrops asper, UniProt P83512); assay: Inhibition of Bothrops asper venom metalloprotease BaP1 assessed as reduction in proteolytic activity using azocasein as substrate measured after 90 mins by colorimetric method
T2 sequence (P83512 whole entry): T1 sequence (whole entry)

[3] = target: T2, Snake venom metalloproteinase BaP1; assay: Binding affinity to Bothrops asper venom metalloprotease BaP1 assessed as Stern-Volmer quenching constant by fluorescence spectroscopic method
[4] = target: T1, Snake venom metalloproteinase BaP1 (Bothrops asper); assay: Inhibition of Bothrops asper venom metalloprotease BaP1 assessed as reduction in proteolytic activity at 100 umol/dm3 using azocasein as substrate measured after 90 mins by colorimetric method relative to control
[5] = target: T1, Snake venom metalloproteinase BaP1 (Bothrops asper); assay: Binding affinity to Bothrops asper venom metalloprotease BaP1 by fluorescence spectroscopic method

SMILES	Activity [1] [nm]	IC50 [2] [µM]	Kd [3] [µM]	inhibition [4] [%]	Activity [5]
CC(C)c1ccc(OCC(=O)N/N=C2\C(=O)NC(=O)N=C2O)cc1	7	17	33.6	95	Active
Cc1ccc(OCC(=O)N/N=C2\C(=O)NC(=O)N=C2O)cc1	11	20	37.1	98	Active
